Like-named read-outs stand apart in the source and are kept apart here.
Legend:
[1] = molecular target: T1, full length human PPAR-α (Homo sapiens, UniProt Q07869); test: PathHunter NHR Protein Interaction assay, PPAR-α agonist activity (CHO cells); format: cell-based; details: for Emax: CHO, PPAR-alpha, free fatty acid form, normalized to control compound (GW7647), read-out: Maximum Response; for PPAR-α EC50 % improvement over FFA form: compared to free fatty acid form; for PPAR-α agonist maximum activity: text of Example 3; for EC50: Table 5, read-out: Cell-Based PPAR Agonist Activity Half Maximal Effective Concentration (EC50) PPAR-α
T1 construct: host or cells: Chinese hamster ovary (CHO) cell lines
T1 sequence (Q07869 1-468): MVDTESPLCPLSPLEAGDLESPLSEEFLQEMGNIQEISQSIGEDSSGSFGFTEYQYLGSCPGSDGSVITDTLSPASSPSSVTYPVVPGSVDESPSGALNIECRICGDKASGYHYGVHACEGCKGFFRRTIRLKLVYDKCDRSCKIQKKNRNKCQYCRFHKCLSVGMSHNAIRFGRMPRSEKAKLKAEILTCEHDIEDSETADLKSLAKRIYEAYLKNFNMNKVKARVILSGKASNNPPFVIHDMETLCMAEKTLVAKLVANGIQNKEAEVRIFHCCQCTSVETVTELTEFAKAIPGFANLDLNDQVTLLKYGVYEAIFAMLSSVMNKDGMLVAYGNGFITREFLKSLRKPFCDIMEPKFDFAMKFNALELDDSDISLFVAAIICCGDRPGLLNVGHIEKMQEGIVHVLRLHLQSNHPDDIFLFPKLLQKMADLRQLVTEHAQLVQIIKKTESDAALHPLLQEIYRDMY
Experimental: (§1) PPAR-α, PPAR-δ, and PPAR-γ agonist activities were measured using PathHunter Nuclear Hormone Receptor (NHR) Protein Interaction (Pro) assays (DiscoverX, Freemont, California). Briefly, Chinese hamster ovary (CHO) cell lines were used to monitor the activation of PPAR-α, PPAR-δ, and PPAR-γ in a homogenous, non-imaging assay format using Enzyme Fragment Complementation (EFC). The NHR Pro assay was based on detection of protein-protein interactions between activated, full length PPAR-α, PPAR-δ, and PPAR-γ proteins and a nuclear fusion protein containing Steroid Receptor Co-activator Peptide (SRCP) domains with one or more canonical LXXLL interaction motifs. PPAR-α, PPAR-δ, and PPAR-γ were tagged with the ProLink component of the EFC assay system, and the SRCP domain was fused to the enzyme acceptor component (EA) expressed in the nucleus. When bound by ligand, PPAR-α, PPAR-δ, or PPAR-γ migrated to the nucleus and recruited the SRCP domain, whereby complementation occurred, generating a unit of active β-Galactosidase (β-Gal) and production of chemiluminescent signal. […] Percentage activity was calculated using the following formula: % Activity=100%×(mean RLU of test sample−mean RLU of vehicle control)/(mean MAX control ligand−mean RLU of vehicle control).

[2] = molecular target: T2, full length human PPAR-δ (Homo sapiens, UniProt Q03181); test: PathHunter NHR Protein Interaction assay, PPAR-δ agonist activity (CHO cells); format: cell-based; details: for Emax: CHO, free fatty acid form, normalized to control compound (L-165,041), read-out: Maximum Response; for PPAR-δ EC50 % improvement over FFA form: compared to free fatty acid form
T2 construct: host or cells: Chinese hamster ovary (CHO) cell lines
T2 sequence (Q03181 1-441): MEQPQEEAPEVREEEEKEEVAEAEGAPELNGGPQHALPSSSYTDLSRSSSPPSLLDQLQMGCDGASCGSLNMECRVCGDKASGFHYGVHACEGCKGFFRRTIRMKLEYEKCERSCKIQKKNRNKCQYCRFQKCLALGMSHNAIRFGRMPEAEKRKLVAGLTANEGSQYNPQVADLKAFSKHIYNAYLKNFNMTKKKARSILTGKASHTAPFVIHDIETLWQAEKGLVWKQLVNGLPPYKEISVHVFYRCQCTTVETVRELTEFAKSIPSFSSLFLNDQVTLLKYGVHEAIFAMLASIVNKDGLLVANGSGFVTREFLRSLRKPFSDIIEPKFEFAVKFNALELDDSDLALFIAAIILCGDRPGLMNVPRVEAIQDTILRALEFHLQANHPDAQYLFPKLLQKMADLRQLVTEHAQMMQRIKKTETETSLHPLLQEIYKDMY
Experimental: as §1

[3] = molecular target: T3, full length human PPAR-γ (Homo sapiens, UniProt P37231); test: PathHunter NHR Protein Interaction assay, PPAR-γ agonist activity (CHO cells); format: cell-based; details: for Emax: CHO, PPAR-gamma, free fatty acid form, normalized to control compound (Troglitazone), read-out: Maximum Response
T3 construct: host or cells: Chinese hamster ovary (CHO) cell lines
T3 sequence (P37231 1-505): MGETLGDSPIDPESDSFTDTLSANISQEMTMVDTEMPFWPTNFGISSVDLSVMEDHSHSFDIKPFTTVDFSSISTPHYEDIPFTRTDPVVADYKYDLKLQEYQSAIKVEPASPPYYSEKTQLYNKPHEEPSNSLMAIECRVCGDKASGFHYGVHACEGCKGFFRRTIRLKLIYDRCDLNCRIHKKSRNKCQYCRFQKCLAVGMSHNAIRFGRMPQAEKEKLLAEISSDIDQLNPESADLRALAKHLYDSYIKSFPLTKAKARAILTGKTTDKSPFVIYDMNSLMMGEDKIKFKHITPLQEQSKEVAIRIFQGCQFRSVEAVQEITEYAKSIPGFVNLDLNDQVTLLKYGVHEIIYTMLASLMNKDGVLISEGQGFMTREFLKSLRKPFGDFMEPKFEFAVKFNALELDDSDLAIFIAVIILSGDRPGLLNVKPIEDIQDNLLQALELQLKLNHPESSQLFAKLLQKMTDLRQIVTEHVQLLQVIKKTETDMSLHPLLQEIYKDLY
Experimental: as §1

[4] = tested on: diet-induced obese mice; test: Diet-induced obese mice on high fat diet, daily oral gavage for 12 weeks; details: for Cholesterol / Glucose: Results (Day 84), 6 h fasted samples
Experimental: Forty C57BL/6J mice were fed a high fat diet (HFD) (D12492, 60% kcals fat) for 8 weeks. Study mice were then divided into the following four groups of ten: vehicle controls, low dose C17:0-treated (5 mg/kg body weight), high-dose C17:0-treated (50 mg/kg body weight), and low-dose C15:0-treated (5 mg/kg body weight).
“Results” values are based on 6 h fasted samples.

[5] = tested on: G protein-coupled receptors, kinases, transporters, ion channels, nuclear receptors, non-kinase enzymes; test: SAFETYscan E/IC50 ELECT panel, agonist and antagonist activities across 78 assays
Text: (§2) Briefly, a variety of standardized and optimized functional assays were used to assess and compare the selected compounds' pharmacologic targets, including G protein-coupled receptors (ADORA2A, ADRA1A, ADRA2A, ADRB1, ADRB2, CB1, CB2, CCK1, D1, D2S, ETA, H1, H2, M1 M2, M3, OPRD1, OPRK1, OPRM1, 5HTR1A, 5HTR1B, 5HTR2A, 5HTR2B, AVPR1A), kinases (LCK, INSR, VEGFR2, ROCK1), transporters (DAT, NET, SERT), ion channels (GABAA, 5-HT3, CA1.2, HERG, KVLQT1/MINK, NA1.5, NMDAR1/2B, NACHR), nuclear receptors (AR, GR), and non-kinase enzymes (COX1, COX2, ACHE, MAO-A, PDE3A, PDE4D2). […] Maximum activity (%) was also determined based on comparisons with internal positive controls, which were assigned 100% activity.

[6] = molecular target: T4, CB1 receptor (Homo sapiens, UniProt P21554); details: for CB1-agonist maximum activity: positive control CP 55940 assigned 100% activity
T4 sequence (P21554 whole entry): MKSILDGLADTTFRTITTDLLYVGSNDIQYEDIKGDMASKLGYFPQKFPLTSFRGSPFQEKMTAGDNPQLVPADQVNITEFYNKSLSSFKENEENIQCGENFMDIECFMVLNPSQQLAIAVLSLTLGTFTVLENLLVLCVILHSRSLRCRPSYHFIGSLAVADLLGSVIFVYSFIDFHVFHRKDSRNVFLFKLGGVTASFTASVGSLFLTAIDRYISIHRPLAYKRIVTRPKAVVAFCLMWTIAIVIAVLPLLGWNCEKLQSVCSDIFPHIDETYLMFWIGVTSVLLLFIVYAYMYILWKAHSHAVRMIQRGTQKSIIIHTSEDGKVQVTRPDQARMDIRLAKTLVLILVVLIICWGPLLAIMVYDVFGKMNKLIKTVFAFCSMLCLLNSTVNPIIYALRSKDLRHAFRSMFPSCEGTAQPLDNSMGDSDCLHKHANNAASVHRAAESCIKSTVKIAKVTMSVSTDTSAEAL
Text: as §2

[7] = molecular target: T4, CB1 receptor; test: cell-based
Text: as §2

[8] = molecular target: cannabinoid receptor 1 (Homo sapiens, UniProt P21554); test: Cannabinoid receptor 1 agonist activity (Example 4); details: for % maximum activity compared to positive control (CP55940): cannabinoid receptor 1 agonist (Table 6)
Chain of cannabinoid receptor 1 (P21554 whole entry, species assumed): as the sequence (P21554 whole entry) above

[9] = molecular target: OPRM1 (Homo sapiens, UniProt P35372)
Chain of OPRM1 (P35372 whole entry): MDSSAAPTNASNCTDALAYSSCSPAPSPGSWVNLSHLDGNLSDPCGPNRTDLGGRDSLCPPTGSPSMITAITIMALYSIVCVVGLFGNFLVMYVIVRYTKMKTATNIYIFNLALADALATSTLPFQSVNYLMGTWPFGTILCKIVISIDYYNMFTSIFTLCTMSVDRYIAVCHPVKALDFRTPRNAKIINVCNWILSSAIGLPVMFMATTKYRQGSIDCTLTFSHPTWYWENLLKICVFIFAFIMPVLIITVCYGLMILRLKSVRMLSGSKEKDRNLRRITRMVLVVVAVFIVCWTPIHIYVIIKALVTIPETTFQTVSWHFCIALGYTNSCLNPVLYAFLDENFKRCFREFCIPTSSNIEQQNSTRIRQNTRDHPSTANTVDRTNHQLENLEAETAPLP
Text: as §2

Compound CCCCCCCCCCCCCCC(=O)O [C15:0, pentadecanoic acid] has an Emax [1] of 65.8%, an Emax ([2]; PPAR-delta) of 52.8% and an Emax [3] of 7%. The “metabolic syndrome (glucose, insulin, cholesterol, proinflammatory cytokines) compared to controls” value ([4]; 5 mg/kg, vs vehicle control group) was “attenuated metabolic syndrome”, the Cholesterol ([4]; 5 mg/kg daily oral) was 183 ± 25 mg/dL and the Glucose ([4]; 5 mg/kg daily oral) was 245 ± 37 mg/dL. The “additional activity across 78 assays” value [5] was “no additional activity was detected”.

Work on CCCCCCCCCCCCCCCC(=O)O [C16:0, palmitic acid, reference compound] yielded an Emax [1] of 56.1% and an Emax [3] of 4.7%.

In the case of CCCCCCCCCCCCCC(CC)C(=O)O (centres unmarked) [2-ethyl-C15:0, 2-ethylpentadecanoic acid], the “PPAR-α EC50 % improvement over FFA form” value [1] is reported as 90%, the “PPAR-α agonist maximum activity” value [1] is reported as 170% and the “PPAR-δ EC50 % improvement over FFA form” value [2] is reported as 89%. For the same compound, the “PPAR-δ agonist maximum activity” value ([2]; text of Example 3) was 72.4%, the EC50 ([2]; text of Example 3, read-out: PPAR-δ agonist EC50) was 28 nM and the “PPAR-γ EC50 % improvement over FFA form” value ([3]; compared to free fatty acid form) was over 49%. The PPAR-γ agonist activity ([3]; in words) was “acquired PPAR-γ agonist activity”, the CB1-agonist maximum activity [6] was 53.7% and the EC50 [7] was 27 nM.

For CCCCCCCCCCCCCC(=O)O [C14:0, myristic acid, reference compound], the Emax [1] was 74.1%, the EC50 [1] was 8400 nM and the Emax [3] was 19%.

In the case of CCCCCCCCCCCCOCC(=O)O [3-oxa-C15:0, 2-(dodecyloxy)acetic acid], the EC50 [8] is reported as 570 nM and the “% maximum activity compared to positive control (CP55940)” value [8] is reported as 83%.

CCCCCCCCCCCCCCCCC(=O)O [C17:0, heptadecanoic acid] showed an Emax [1] of 16.7%, an Emax ([2]; PPAR-delta) of 39.8% and an EC50 ([2]; PPAR-delta, free fatty acid form (Table 4), read-out: EC50) of 17400 nM. For the same compound, the Emax [3] was 1%, the “metabolic syndrome compared to controls” value ([4]; C17:0 5 and 50 mg/kg, vs vehicle control group) was “trended toward attenuated metabolic syndrome” and the Cholesterol ([4]; 5 mg/kg daily oral) was 197 ± 31 mg/dL. For the same compound, the Glucose ([4]; 5 mg/kg daily oral) was 296 ± 23 mg/dL, the Cholesterol ([4]; 50 mg/kg daily oral) was 187 ± 44 mg/dL and the Glucose ([4]; 50 mg/kg daily oral) was 282 ± 31 mg/dL. For the same compound, the “proinflammatory cytokines and chemokines (TNF-α and MCP-1) compared to controls” value ([4]; high-dose 50 mg/kg, vs vehicle control group) was “significantly lower”.

For CCCCCCCCCCCCCCc1nnn[nH]1 [1-tetrazole-C15:0], the EC50 [1] was 2600 nM, the “PPAR-α EC50 % improvement over FFA form” value [1] was 77% and the “PPAR-α agonist maximum activity” value [1] was 32%. For the same compound, the EC50 ([2]; Table 5, read-out: Cell-Based PPAR Agonist Activity Half Maximal Effective Concentration (EC50) PPAR-δ) was 500 nM, the “PPAR-δ EC50 % improvement over FFA form” value [2] was 81% and the “PPAR-δ agonist maximum activity” value ([2]; text of Example 3) was 18%. The EC50 ([3]; Table 5, read-out: Cell-Based PPAR Agonist Activity Half Maximal Effective Concentration (EC50) PPAR-γ) was over 100000 nM, the CB1-agonist maximum activity [6] was 48.3% and the IC50 ([6]; read-out: CB1-agonist activity IC50, ten-point concentration curves) was 1300 nM. The “OPRM1 antagonist maximum activity” value [9] was 46.2% and the IC50 ([9]; read-out: OPRM1 antagonist IC50, ten-point concentration curves) was 3900 nM.

With CCCCCCCCCCCCCC(CC)(CC)C(=O)O [diethyl-C15:0] the EC50 [8] was 3300 nM and the “% maximum activity compared to positive control (CP55940)” value [8] was 93%.

For CCCCCCCCCCCCCC(C)C(=O)O (centres unmarked) [2-methyl-C15:0, 2-methylpentadecanoic acid], the “additional activity across 78 assays” value [5] was “no additional activity was detected”.

— patent US12440473B2 (priority 2019, dated 2025)
